Data set [1] relates to piroxicam-induced gastric ulcers. Description: suppression of piroxicam-induced gastric ulcers by interventions (PBN, free radical scavengers, ascorbate). In kind it is in vivo, rat (male Sprague-Dawley). The procedure:
FIG. 2 is a graph of % control ulceration from piroxicam versus the % ulceration in the presence of free radical scavengers. The […] scavenger dimethylthiourea (DMTU, 500 mg/kg i.p.) was given 24 hours and 1 hour before piroxicam. […] The antioxidant butylated hydroxytoluene (BHT, 25 mg/kg/day i.p. in corn oil) was given for three days before and again 1 hour before piroxicam. The % control ulceration is determined by averaging the ratios of cm^2 ulceration in control stomachs from rats given piroxicam alone, and multiplying×100. +P< 0.01 compared to piroxicam alone.
(§1) Male Sprague-Dawley rats (Charles River, Wilmington, Mass.) weighing 300-325 g were housed individually in wire bottomed cages to prevent ingestion of hair and feces. Animals were maintained without food for 48 hours and without water for 24 hours prior to each experiment. Piroxicam or aspirin and other NSAIDS were suspended in a vehicle of 1% carboxymethylcellulose, 0.1% Tween 80 and 0.15 M HCl, and administered in a volume of 1 ml on the morning of study by oral gavage using an 18 gauge curved blunt needle (Popper and Sons, New Hyde Park, N.Y.). One ml of vehicle alone was administered for control experiments. HCl was added to the vehicle to insure an acid environment in the stomach in all studies. […] Four hours after the administration of NSAID or vehicle, rats were euthanized with sodium pentobarbital (100 mg/kg IP), and the surface area of ulceration per stomach was quantitated using morphometric techniques. Stomachs were removed, the lumen was exposed by an incision along the radius of greater curvature, and the stomach was washed in phosphate buffered saline. The luminal surface was laid out on a flat surface with gross folds removed by gentle distension. The percentage of surface involved with submucosal hemorrhage was then determined by point counting, as described by Weibel, E. R. Stereological Methods: Practical Methods for Biological Morphometry. Academic Press, New York 1980. This was done by tabulation of the percentage of points over ulcerations using a point counting eyepiece graticle (16×16 points in a square format). At the 12X magnification used on the Wild dissecting microscope (Wild-Heerbrugg, Basel, Switzerland), the graticle covered a 1 cm^2 area of the surface. Four to five non-overlapping sampling sites were taken to fully cover the exposed surface. To determine the total luminal surface area, the outline of the outer boundary of the stomach was traced using a transparent acetate sheet, and the area was determined from planimetry. The surface area of ulcerated regions per stomach was then determined by multiplying the surface density of ulceration regions by the luminal surface area of the stomach.
Differences in total luminal surface area in cm^2, surface area of ulcerated regions per stomach and biochemical analyses between each treatment intervention and its corresponding untreated control group are compared using the Mann-Whitney U Test, Dixon, W. J., Massey, F. J., Jr. Introduction to statistical methods, 4th edition. (New York: McGraw Hill, 1983). […] In vitro studies are compared using the Student's unpaired T-test, Dixon, W. J., Massey, F. J., Jr. Introduction to statistical methods, 4th edition. (New York: McGraw Hill, 1983). Values are expressed as mean±SEM. Significance is assumed when P<0.05.
In each experiment, the surface area of gastric ulceration produced by piroxicam in 15 treated rats was compared to that in 15 rats of the same age and size that were fasted simultaneously but which received no intervention. Phenylbutyl nitrone (30 mg/kg) was given orally in water 1 hour before piroxicam and also added to vehicle when piroxicam was administered. When intervention were given with piroxicam, the pH of the final mixture was adjusted if necessary to equal that of piroxicam and vehicle alone.

Data set [2] in a line: in vivo acute toxicity in rodents. To be noted: doses up to 3 g/kg in rodents. An excerpt:
(§2) In vivo toxicity tests have indicated the following. […] An LD50 has yet to be determined because of the lack of toxicity.

A short description of data set [3]: acute i.v. toxicity in gerbils. The data set is classed as in vivo. To be noted: 10 to 300 mg/kg i.v., injected within 60 seconds.
Excerpt: as §2

A short description of data set [4]: continuous i.v. administration toxicity in gerbils. In kind it is in vivo. To be noted: 50 mg/kg/hr for a total of 48 hr.
Excerpt: as §2

The nature of data set [5]: bioavailability / distribution estimate. The data set is classed as in vivo.
Data set [6] can be described thus: pharmacokinetic studies, plasma half-life. In kind it is in vivo. To be noted: rat; limited pharmacokinetic studies. An excerpt:
Limited pharmokinetic studies indicate that the plasma half-life in the rat is three to four hours.

The nature of a further data set: pH stability of PBN. The conditions noted are these: degrades at pH less than approximately. The data set is classed as physicochemical.
The conditions of data set [7]: previous studies, standard techniques; cited from earlier work.
The next data set relates to gastric ulceration. Description: NSAID-induced gastric ulceration in rats (surface area of ulceration). In kind it is in vivo, rat (male Sprague-Dawley). To be noted: aspirin 200, diflunisal 125, naproxen 150, ibuprofen 230 mg/kg; oral gavage, 4 h. The procedure: as §1, with “Animals were maintained without food for 48 hours and without water for 24 hours prior to each experiment.” left out, “Academic Press, New York 1980.” left out
Differences in total luminal surface area in cm^2, surface area of ulcerated regions per stomach and biochemical analyses between each treatment intervention and its corresponding untreated control group are compared using the Mann-Whitney U Test, Dixon, W. J., Massey, F. J., Jr. Introduction to statistical methods, 4th edition. […] In vitro studies are compared using the Student's unpaired T-test, Dixon, W. J., Massey, F. J., Jr. Introduction to statistical methods, 4th edition. […] Values are expressed as mean±SEM. Significance is assumed when P<0.05.
Phenyl N-tert-butyl nitrone is obtained from Aldrich Chemicals, Milwaukee, Wis. All other chemicals and pharmaceuticals are from Sigma Chemical.

Data set [8] concerns isolated perfused gastric mucosa. The conditions noted are these: cited from earlier work.

Turning to `CC(C)(C)[N+]([O-])=Cc1ccccc1` [PBN, N-tert-Butyl-α-phenylnitrone], the ulcerations/unit area in data set [1] (piroxicam 23 mg/kg only, or plus PBN 30 mg/kg orally 1 hour before and with piroxicam, p<0.0052) turned out to be 0.077±0.104 ulcerations/unit area. The “inhibition of piroxicam-induced ulcers, in words” value in data set [1] (piroxicam 23 mg/kg, FIG. 2) is recorded as “markedly inhibited”. In addition, in data set [2], the “adverse effects, acute doses” value is recorded as “no adverse effects”. The “acute toxic effects, i.v.” value in [3] is reported as “no acute toxic effects”. Also, in data set [4], the “adverse effect, continuous i.v. administration” value is “no adverse effect”. Further, in data set [5] (brain, read-out: brain level as % of the plasma concentration), the Kp was 0.8. Also, in [5] (in vivo), the “distribution, in words” value is “widely available throughout the body and is able to cross all of the barriers to distribution, including the blood brain barrier”. Also, in data set [6], the plasma half-life result is “three to four”. In addition, in “pH stability of PBN”, the “pH below which PBN degrades” value was 3 to 4 pH. Also, the mutagenicity entry in data set [7] is “not mutagenic”.

As to `O=C1O[C@H]([C@@H](O)CO)C(O)=C1O` [ascorbate], in data set [1] (ascorbate plus piroxicam, P<0.001), the “increase in ulceration compared to control stomachs treated with piroxicam alone” value is recorded as “over 600%”. Also, the “ulceration (ascorbate experiment)” value in data set [1] (ascorbate-treated stomachs (with piroxicam) vs piroxicam alone, P<0.001) stood at 0.194±0.039 cm^2.

Take `CC(=O)Oc1ccccc1C(=O)O` [aspirin]: the “gastric ulceration caused by NSAID” value in the data set with gastric ulceration stood at 0.972±0.318 cm^2. Moreover, the “mucosal adenosine triphosphate (ATP) and phosphocreatine (PC)” value in [8] was “decreases mucosal adenosine triphosphate (ATP) and phosphocreatine (PC)”.

As to `O=C(O)c1cc(-c2ccc(F)cc2F)ccc1O` [diflunisal], the “gastric ulceration caused by NSAID” value in the data set on gastric ulceration was determined as 0.597±0.103 cm^2.

Consider `CC(C)Cc1ccc(C(C)C(=O)O)cc1` (centres unmarked) [ibuprofen], for which the “gastric ulceration caused by NSAID” value in the data set on gastric ulceration is recorded as 0.644±0.110 cm^2.

As for `COc1ccc2cc([C@H](C)C(=O)O)ccc2c1` [naproxen], in the data set with gastric ulceration, the “gastric ulceration caused by NSAID” value is given as 0.370±0.056 cm^2.

Source of the values: US5036097A, “Phenylbutyl nitrone compositions and methods for prevention of gastric ulceration” (Oklahoma Medical Research Foundation, priority 1990, dated 1991).
